Test results taken from PMC10065276, “Enhanced therapeutic window for antimicrobial Pept-ins by investigating their structure-activity relationship” (PLOS ONE, 2023).
Positions of bridges follow the written chain, without caps; N, C: chain ends. Residues, ends and D or L forms follow the SMILES beside them.

System: E. coli BL21
Conditions: BL21, 17 h
Summary of the method: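 EUCAST broth microdilution in Mueller-Hinton medium; end-exponential culture diluted to 0.005 McF (~1.5x10^6 CFU/mL) before 1:1 mixing with two-fold peptide dilutions (0.75 to 100 μg/mL), triplicates.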

CC[C@H](C)[C@H](NC(=O)CNC(=O)[C@H](CC(C)C)NC(=O)[C@@H](N)CCCNC(=N)N)C(=O)N[C@@H](C)C(=O)N[C@H](C(=O)N[C@@H](C)C(=O)N[C@@H](CC(C)C)C(=O)N[C@@H](CCCNC(=N)N)C(=O)N[C@@H](CCCNC(=N)N)C(=O)N1CCC[C@H]1C(=O)N[C@@H](CCCNC(=N)N)C(=O)N[C@@H](CC(C)C)C(=O)NCC(=O)N[C@@H](C)C(=O)N[C@@H](C)C(=O)N[C@H](C(=O)N[C@@H](C)C(=O)N[C@@H](CC(C)C)C(=O)N[C@@H](CCCNC(=N)N)C(=O)N[C@@H](CCCNC(=N)N)C(=O)O)C(C)C)C(C)C [Peptide P33-I15A] (H-RLGIAVALRRPRLGAAVALRR-OH)
BL21 MIC: 12.50 µg/mL

CC(C)C[C@H](NC(=O)CNC(=O)[C@H](CCCNC(=N)N)NC(=O)[C@@H]1CCCN1C(=O)[C@H](CCCNC(=N)N)NC(=O)[C@H](CCCNC(=N)N)NC(=O)[C@@H](NC(=O)[C@H](CC(C)C)NC(=O)[C@H](C)NC(=O)[C@H](CC(C)C)NC(=O)CNC(=O)[C@H](CC(C)C)NC(=O)CNC(=O)[C@@H](N)CCCNC(=N)N)C(C)C)C(=O)NCC(=O)N[C@@H](CC(C)C)C(=O)N[C@@H](C)C(=O)N[C@@H](C)C(=O)N[C@H](C(=O)N[C@@H](CCCNC(=N)N)C(=O)N[C@@H](CCCNC(=N)N)C(=O)O)C(C)C [Peptide P2_L18A] (H-RGLGLALVRRPRGLGLAAVRR-OH)
BL21 MIC: 50.00 µg/mL

CC(C)C[C@H](NC(=O)CNC(=O)[C@H](CCCNC(=N)N)NC(=O)[C@@H]1CCCN1C(=O)[C@H](CCCNC(=N)N)NC(=O)[C@H](CCCNC(=N)N)NC(=O)[C@@H](NC(=O)[C@H](CC(C)C)NC(=O)[C@H](C)NC(=O)[C@H](CC(C)C)NC(=O)CNC(=O)[C@H](CC(C)C)NC(=O)CNC(=O)[C@@H](N)CCCNC(=N)N)C(C)C)C(=O)NCC(=O)N[C@@H](CC(C)C)C(=O)N[C@@H](C)C(=O)N[C@@H](CC(C)C)C(=O)N[C@@H](C)C(=O)N[C@@H](CCCNC(=N)N)C(=O)N[C@@H](CCCNC(=N)N)C(=O)O [Peptide P2_V19A] (H-RGLGLALVRRPRGLGLALARR-OH)
BL21 MIC: 25.00 µg/mL

CC(C)C[C@H](NC(=O)CNC(=O)[C@H](CCCNC(=N)N)NC(=O)[C@H](Cc1c[nH]c2ccccc12)NC(=O)[C@H](C)NC(=O)[C@H](CCCNC(=N)N)NC(=O)[C@@H](NC(=O)[C@H](CC(C)C)NC(=O)[C@H](C)NC(=O)[C@H](CC(C)C)NC(=O)CNC(=O)[C@H](CC(C)C)NC(=O)CNC(=O)[C@@H](N)CCCNC(=N)N)C(C)C)C(=O)NCC(=O)N[C@@H](CC(C)C)C(=O)N[C@@H](C)C(=O)N[C@@H](CC(C)C)C(=O)N[C@H](C(=O)N[C@@H](C)C(=O)N[C@@H](CCCNC(=N)N)C(=O)O)C(C)C [Peptide P2_4R_W] (H-RGLGLALVRAWRGLGLALVAR-OH)
BL21 MIC: 12.50 µg/mL

CC[C@H](C)[C@H](NC(=O)CNC(=O)[C@H](CC(C)C)NC(=O)[C@H](CCCNC(=N)N)NC(=O)[C@@H]1CCCN1C(=O)[C@H](CCCNC(=N)N)NC(=O)[C@H](CCCNC(=N)N)NC(=O)[C@H](CC(C)C)NC(=O)[C@H](C)NC(=O)[C@@H](NC(=O)[C@H](C)NC(=O)[C@@H](NC(=O)CNC(=O)[C@H](CC(C)C)NC(=O)[C@H](C)N)[C@@H](C)CC)C(C)C)C(=O)N[C@@H](C)C(=O)N[C@H](C(=O)N[C@@H](C)C(=O)N[C@@H](CC(C)C)C(=O)N[C@@H](C)C(=O)N[C@@H](CCCNC(=N)N)C(=O)O)C(C)C [Peptide P33_4R_2] (H-ALGIAVALRRPRLGIAVALAR-OH)
BL21 MIC: 25.00 µg/mL

CC(C)C[C@H](NC(=O)CNC(=O)[C@H](CCCNC(=N)N)NC(=O)[C@@H]1CCCN1C(=O)[C@H](CCCNC(=N)N)NC(=O)[C@H](CCCNC(=N)N)NC(=O)[C@@H](NC(=O)CNC(=O)[C@H](C)NC(=O)[C@H](CC(C)C)NC(=O)CNC(=O)[C@H](CC(C)C)NC(=O)CNC(=O)[C@@H](N)CCCNC(=N)N)C(C)C)C(=O)NCC(=O)N[C@@H](CC(C)C)C(=O)N[C@@H](C)C(=O)NCC(=O)N[C@H](C(=O)N[C@@H](CCCNC(=N)N)C(=O)N[C@@H](CCCNC(=N)N)C(=O)O)C(C)C [L6G (P2)] (H-RGLGLAGVRRPRGLGLAGVRR-OH)
BL21 MIC: 100.00 µg/mL

CSCC[C@H](NC(=O)[C@H](CC(C)C)NC(=O)CNC(=O)[C@H](CC(C)C)NC(=O)CNC(=O)[C@H](CCCNC(=N)N)NC(=O)[C@@H]1CCCN1C(=O)[C@H](CCCNC(=N)N)NC(=O)[C@H](CCCNC(=N)N)NC(=O)[C@@H](NC(=O)[C@H](CC(C)C)NC(=O)[C@H](CCSC)NC(=O)[C@H](CC(C)C)NC(=O)CNC(=O)[C@H](CC(C)C)NC(=O)CNC(=O)[C@@H](N)CCCNC(=N)N)C(C)C)C(=O)N[C@@H](CC(C)C)C(=O)N[C@H](C(=O)N[C@@H](CCCNC(=N)N)C(=O)N[C@@H](CCCNC(=N)N)C(=O)O)C(C)C [A5M (P2)] (H-RGLGLMLVRRPRGLGLMLVRR-OH)
BL21 MIC: 6.25 µg/mL

CC(C)C[C@H](NC(=O)CNC(=O)[C@H](CCCNC(=N)N)NC(=O)[C@@H]1CCCN1C(=O)[C@H](CCCNC(=N)N)NC(=O)[C@H](CCCNC(=N)N)NC(=O)[C@@H](NC(=O)[C@H](CC(C)C)NC(=O)[C@H](C)NC(=O)[C@H](C)NC(=O)CNC(=O)[C@H](CC(C)C)NC(=O)CNC(=O)[C@@H](N)CCCNC(=N)N)C(C)C)C(=O)NCC(=O)N[C@@H](CC(C)C)C(=O)N[C@@H](C)C(=O)N[C@@H](CC(C)C)C(=O)N[C@H](C(=O)N[C@@H](CCCNC(=N)N)C(=O)N[C@@H](CCCNC(=N)N)C(=O)O)C(C)C [Peptide P2_L5A] (H-RGLGAALVRRPRGLGLALVRR-OH)
BL21 MIC: 50.00 µg/mL

CC(C)C[C@H](NC(=O)CNC(=O)[C@H](CCCNC(=N)N)NC(=O)[C@@H]1CCCN1C(=O)[C@H](CCCNC(=N)N)NC(=O)[C@H](CCCNC(=N)N)NC(=O)[C@@H](NC(=O)[C@H](CC(C)C)NC(=O)[C@H](C)NC(=O)[C@H](CC(C)C)NC(=O)CNC(=O)[C@H](CC(C)C)NC(=O)CNC(=O)[C@@H](N)CCCNC(=N)N)C(C)C)C(=O)NCC(=O)N[C@@H](C)C(=O)N[C@@H](C)C(=O)N[C@@H](CC(C)C)C(=O)N[C@H](C(=O)N[C@@H](CCCNC(=N)N)C(=O)N[C@@H](CCCNC(=N)N)C(=O)O)C(C)C [Peptide P2_L16A] (H-RGLGLALVRRPRGLGAALVRR-OH)
BL21 MIC: 50.00 µg/mL

CC(C)C[C@H](NC(=O)CNC(=O)[C@H](CCCNC(=N)N)NC(=O)[C@@H]1CSSC[C@H](NC(=O)[C@@H](NC(=O)[C@H](CC(C)C)NC(=O)[C@H](C)NC(=O)[C@H](CC(C)C)NC(=O)CNC(=O)[C@H](CC(C)C)NC(=O)CNC(=O)[C@@H](N)CCCNC(=N)N)C(C)C)C(=O)N[C@@H](CCCNC(=N)N)C(=O)N[C@@H](CCCNC(=N)N)C(=O)N[C@H](Cc2ccccc2)C(=O)N2CCC[C@H]2C(=O)N1)C(=O)NCC(=O)N[C@@H](CC(C)C)C(=O)N[C@@H](C)C(=O)N[C@@H](CC(C)C)C(=O)N[C@H](C(=O)N[C@@H](CCCNC(=N)N)C(=O)N[C@@H](CCCNC(=N)N)C(=O)O)C(C)C [Peptide P2_H12_fP]
BL21 MIC, SS bond: 3.13 µg/mL | BL21 MIC, no SS bond: 6.25 µg/mL

CC[C@H](C)[C@H](NC(=O)[C@H](C)NC(=O)[C@H](CCCNC(=N)N)NC(=O)[C@@H](NC(=O)[C@H](CC(C)C)NC(=O)[C@H](C)NC(=O)[C@H](CC(C)C)NC(=O)CNC(=O)[C@H](CC(C)C)NC(=O)CNC(=O)[C@@H](N)CCCNC(=N)N)C(C)C)C(=O)N[C@@H](CCCNC(=N)N)C(=O)NCC(=O)N[C@@H](CC(C)C)C(=O)NCC(=O)N[C@@H](CC(C)C)C(=O)N[C@@H](C)C(=O)N[C@@H](CC(C)C)C(=O)N[C@H](C(=O)N[C@@H](C)C(=O)N[C@@H](CCCNC(=N)N)C(=O)O)C(C)C [Peptide P2_4R_I] (H-RGLGLALVRAIRGLGLALVAR-OH)
BL21 MIC: 12.50 µg/mL

CC[C@H](C)[C@H](NC(=O)CNC(=O)[C@H](CC(C)C)NC(=O)[C@@H](N)CCCNC(=N)N)C(=O)N[C@@H](C)C(=O)N[C@H](C(=O)N[C@@H](C)C(=O)N[C@@H](C)C(=O)N[C@@H](CCCNC(=N)N)C(=O)N[C@@H](CCCNC(=N)N)C(=O)N1CCC[C@H]1C(=O)N[C@@H](CCCNC(=N)N)C(=O)N[C@@H](CC(C)C)C(=O)NCC(=O)N[C@H](C(=O)N[C@@H](C)C(=O)N[C@H](C(=O)N[C@@H](C)C(=O)N[C@@H](CC(C)C)C(=O)N[C@@H](CCCNC(=N)N)C(=O)N[C@@H](CCCNC(=N)N)C(=O)O)C(C)C)[C@@H](C)CC)C(C)C [Peptide P33-8LA] (H-RLGIAVAARRPRLGIAVALRR-OH)
BL21 MIC: 6.25 µg/mL

CC(C)C[C@H](NC(=O)CNC(=O)[C@H](CCCNC(=N)N)NC(=O)[C@H](CCCNC(=N)N)NC(=O)[C@H](C)NC(=O)[C@H](CCCNC(=N)N)NC(=O)[C@@H](NC(=O)[C@H](CC(C)C)NC(=O)[C@H](C)NC(=O)[C@H](CC(C)C)NC(=O)CNC(=O)[C@H](CC(C)C)NC(=O)CNC(=O)[C@@H](N)CCCNC(=N)N)C(C)C)C(=O)NCC(=O)N[C@@H](CC(C)C)C(=O)N[C@@H](C)C(=O)N[C@@H](CC(C)C)C(=O)N[C@H](C(=O)N[C@@H](C)C(=O)N[C@@H](CCCNC(=N)N)C(=O)O)C(C)C [Peptide P2_4R_R] (H-RGLGLALVRARRGLGLALVAR-OH)
BL21 MIC: 12.50 µg/mL

CC(C)C[C@H](NC(=O)CNC(=O)[C@H](CCCNC(=N)N)NC(=O)[C@@H]1CSSC[C@H](NC(=O)[C@@H](NC(=O)[C@H](CC(C)C)NC(=O)[C@H](C)NC(=O)[C@H](CC(C)C)NC(=O)CNC(=O)[C@H](CC(C)C)NC(=O)CNC(=O)[C@@H](N)CCCNC(=N)N)C(C)C)C(=O)N[C@@H](CCCNC(=N)N)C(=O)N[C@@H](CCCNC(=N)N)C(=O)N[C@@H](CCCNC(=N)N)C(=O)N[C@@H](Cc2ccccc2)C(=O)N1)C(=O)NCC(=O)N[C@@H](CC(C)C)C(=O)N[C@@H](C)C(=O)N[C@@H](CC(C)C)C(=O)N[C@H](C(=O)N[C@@H](CCCNC(=N)N)C(=O)N[C@@H](CCCNC(=N)N)C(=O)O)C(C)C [Peptide P2_H12_FC] (H-RGLGLALVCRRRFCRGLGLALVRR-OH; disulfide 9-14)
BL21 MIC, SS bond: 3.50 µg/mL | BL21 MIC, no SS bond: 6.25 µg/mL

CC(C)C[C@H](NC(=O)CNC(=O)[C@H](CCCNC(=N)N)NC(=O)[C@@H]1CCCN1C(=O)[C@H](CCCNC(=N)N)NC(=O)[C@H](CCCNC(=N)N)NC(=O)[C@@H](NC(=O)[C@H](CC(C)C)NC(=O)[C@H](Cc1ccccc1)NC(=O)[C@H](CC(C)C)NC(=O)CNC(=O)[C@H](CC(C)C)NC(=O)CNC(=O)[C@@H](N)CCCNC(=N)N)C(C)C)C(=O)NCC(=O)N[C@@H](CC(C)C)C(=O)N[C@@H](Cc1ccccc1)C(=O)N[C@@H](CC(C)C)C(=O)N[C@H](C(=O)N[C@@H](CCCNC(=N)N)C(=O)N[C@@H](CCCNC(=N)N)C(=O)O)C(C)C [A5F (P2)] (H-RGLGLFLVRRPRGLGLFLVRR-OH)
BL21 MIC: 12.50 µg/mL
